Reference: US20230085307A1, “PYRIDAZINONE COMPOUND AND HERBICIDE” (NISSAN CHEMICAL CORPORATION, priority 2019, published 2023)

Legend:
redroot pigweed [1] = assay: Test Example 4: herbicidal effect by soil treatment (Table 19, symbol N); assay type: in vivo, redroot pigweed (Amaranthus retroflexus); conditions: amount of applied herbicide 320 g/ha
Outline: (§1)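 Herbicidal effect was rated 3 weeks after treatment, using the scoring criteria of an earlier test. The compound, formulated as an emulsion and diluted in water to a set herbicide amount, had been sprayed uniformly on soil over freshly sown seeds. Growth took place in a greenhouse at 25° C. to 30° C.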

blackgrass [2] = assay: Test Example 5: herbicidal effect by foliage application, plastic box (Table 20, symbol J); assay type: in vivo, blackgrass (Alopecurus myosuroides); conditions: foliage application, AAH 320 g/ha, evaluated three weeks after application
Outline: (§2)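 Foliar spray test: emulsion formulation diluted in water to a set application rate, sprayed onto 14-day-old plants raised in diluvial soil at 25° C to 30° C under glass. Both herbicidal effect and crop effect rated visually three weeks later.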

green foxtail [3] = assay: Test Example 5: herbicidal effect by foliage application, plastic box (Table 20, symbol G); assay type: in vivo, green foxtail (Setaria viridis); conditions: foliage application, AAH 320 g/ha, evaluated three weeks after application
Outline: as §2

Chinese sprangletop = assay: Test Example 3: herbicidal effect by foliage application, Wagner pot (Table 18, symbol D); assay type: in vivo, chinese sprangletop (Leptochloa chinensis); conditions: amount of applied herbicide 320 g/ha
Outline: (§3)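 Plants were sown in alluvial soil held under 0.1–0.5 cm standing water and grown 14 days in a greenhouse at 25–30 °C. An emulsifiable formulation, water-diluted to the set dose, was then sprayed onto the foliage, and effects were scored three weeks later using previously defined criteria.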

barnyard grass [4] = assay: Test Example 5: herbicidal effect by foliage application, plastic box (Table 20, symbol H); assay type: in vivo, barnyard grass (Echinochloa crus-galli); conditions: foliage application, AAH 320 g/ha, evaluated three weeks after application
Outline: as §2

lambsquarters [5] = assay: Test Example 5: herbicidal effect by foliage application, plastic box (Table 20, symbol O); assay type: in vivo, lambsquarters (Chenopodium album); conditions: foliage application, AAH 320 g/ha, evaluated three weeks after application
Outline: as §2

blackgrass [6] = assay: Test Example 4: herbicidal effect by soil treatment (Table 19, symbol J); assay type: in vivo, blackgrass (Alopecurus myosuroides); conditions: amount of applied herbicide 320 g/ha
Outline: as §1

velvetleaf [7] = assay: Test Example 4: herbicidal effect by soil treatment (Table 19, symbol M); assay type: in vivo, velvetleaf (Abutilon theophrasti); conditions: amount of applied herbicide 320 g/ha
Outline: as §1

oval-leafed pondweed = assay: Test Example 1: herbicidal activity, application before weed generation under submerged conditions (Table 16, symbol C); assay type: in vivo, oval-leafed pondweed (Monochoria vaginalis); conditions: 320 g/ha applied herbicide
Outline: (§4)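 Alluvial soil was flooded to 4 cm depth, weed seeds were sown mixed and 2.5-leaf rice seedlings were transplanted. On sowing day, the compound's emulsion, diluted in water to a set dose, was applied to the water surface. Plants grew at 25–30 °C and were scored 0–5 after three weeks.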

Italian ryegrass [8] = assay: Test Example 5: herbicidal effect by foliage application, plastic box (Table 20, symbol K); assay type: in vivo, Italian ryegrass (Lolium multiflorum); conditions: foliage application, AAH 320 g/ha, evaluated three weeks after application
Outline: as §2

velvetleaf [9] = assay: Test Example 5: herbicidal effect by foliage application, plastic box (Table 20, symbol M); assay type: in vivo, velvetleaf (Abutilon theophrasti); conditions: foliage application, AAH 320 g/ha, evaluated three weeks after application
Outline: as §2

chickweed [10] = assay: Test Example 4: herbicidal effect by soil treatment (Table 19, symbol P); assay type: in vivo, common chickweed (Stellaria media); conditions: amount of applied herbicide 320 g/ha
Outline: as §1

southern crabgrass [11] = assay: Test Example 4: herbicidal effect by soil treatment (Table 19, symbol F); assay type: in vivo, southern crabgrass (Digitaria ciliaris); conditions: amount of applied herbicide 320 g/ha
Outline: as §1

lambsquarters [12] = assay: Test Example 4: herbicidal effect by soil treatment (Table 19, symbol O); assay type: in vivo, lambsquarters (Chenopodium album); conditions: amount of applied herbicide 320 g/ha
Outline: as §1

redroot pigweed [13] = assay: Test Example 5: herbicidal effect by foliage application, plastic box (Table 20, symbol N); assay type: in vivo, redroot pigweed (Amaranthus retroflexus); conditions: foliage application, AAH 320 g/ha, evaluated three weeks after application
Outline: as §2

southern crabgrass [14] = assay: Test Example 5: herbicidal effect by foliage application, plastic box (Table 20, symbol F); assay type: in vivo, southern crabgrass (Digitaria ciliaris); conditions: foliage application, AAH 320 g/ha, evaluated three weeks after application
Outline: as §2

late watergrass = assay: Test Example 1: herbicidal activity, application before weed generation under submerged conditions (Table 16, symbol A); assay type: in vivo, late watergrass (Echinochloa oryzicola); conditions: 320 g/ha applied herbicide
Outline: as §4

green foxtail [15] = assay: Test Example 4: herbicidal effect by soil treatment (Table 19, symbol G); assay type: in vivo, green foxtail (Setaria viridis); conditions: amount of applied herbicide 320 g/ha
Outline: as §1

chickweed [16] = assay: Test Example 5: herbicidal effect by foliage application, plastic box (Table 20, symbol P); assay type: in vivo, common chickweed (Stellaria media); conditions: foliage application, AAH 320 g/ha, evaluated three weeks after application
Outline: as §2

windgrass [17] = assay: Test Example 5: herbicidal effect by foliage application, plastic box (Table 20, symbol L); assay type: in vivo, windgrass (Apera spica-venti); conditions: foliage application, AAH 320 g/ha, evaluated three weeks after application
Outline: as §2

persian speedwell [18] = assay: Test Example 5: herbicidal effect by foliage application, plastic box (Table 20, symbol R); assay type: in vivo, Persian speedwell (Veronica persica); conditions: foliage application, AAH 320 g/ha, evaluated three weeks after application
Outline: as §2

windgrass [19] = assay: Test Example 4: herbicidal effect by soil treatment (Table 19, symbol L); assay type: in vivo, windgrass (Apera spica-venti); conditions: amount of applied herbicide 320 g/ha
Outline: as §1

rice flat sedge = assay: Test Example 3: herbicidal effect by foliage application, Wagner pot (Table 18, symbol E); assay type: in vivo, rice flat sedge (Cyperus iria); conditions: amount of applied herbicide 320 g/ha
Outline: as §3

Japanese bulrush = assay: Test Example 1: herbicidal activity, application before weed generation under submerged conditions (Table 16, symbol B); assay type: in vivo, Japanese bulrush (Schoenoplectus juncoides); conditions: 320 g/ha applied herbicide
Outline: as §4

barnyard grass [20] = assay: Test Example 3: herbicidal effect by foliage application, Wagner pot (Table 18, symbol H); assay type: in vivo, barnyard grass (Echinochloa crus-galli); conditions: amount of applied herbicide 320 g/ha
Outline: as §3

wild oat [21] = assay: Test Example 4: herbicidal effect by soil treatment (Table 19, symbol I); assay type: in vivo, wild oat (Avena fatua); conditions: amount of applied herbicide 320 g/ha
Outline: as §1

wild oat [22] = assay: Test Example 5: herbicidal effect by foliage application, plastic box (Table 20, symbol I); assay type: in vivo, wild oat (Avena fatua); conditions: foliage application, AAH 320 g/ha, evaluated three weeks after application
Outline: as §2

barnyard grass [23] = assay: Test Example 4: herbicidal effect by soil treatment (Table 19, symbol H); assay type: in vivo, barnyard grass (Echinochloa crus-galli); conditions: amount of applied herbicide 320 g/ha
Outline: as §1

persian speedwell [24] = assay: Test Example 4: herbicidal effect by soil treatment (Table 19, symbol R); assay type: in vivo, Persian speedwell (Veronica persica); conditions: amount of applied herbicide 320 g/ha
Outline: as §1

Italian ryegrass [25] = assay: Test Example 4: herbicidal effect by soil treatment (Table 19, symbol K); assay type: in vivo, Italian ryegrass (Lolium multiflorum); conditions: amount of applied herbicide 320 g/ha
Outline: as §1

| SMILES | herbicidal effect on N: redroot pigweed (redroot pigweed [1]) | J: blackgrass, herbicidal effect (criteria 0-5) (blackgrass [2]) | G: green foxtail, herbicidal effect (criteria 0-5) (green foxtail [3]) | herbicidal effect on D: Chinese sprangletop (Chinese sprangletop) | H: barnyard grass, herbicidal effect (criteria 0-5) (barnyard grass [4]) | O: lambsquarters, herbicidal effect (criteria 0-5) (lambsquarters [5]) | herbicidal effect on J: blackgrass (blackgrass [6]) | herbicidal effect on M: velvetleaf (velvetleaf [7]) | Herbicidal effect on C: oval-leafed pondweed (grade 0-5) (oval-leafed pondweed) | K: Italian ryegrass, herbicidal effect (criteria 0-5) (Italian ryegrass [8]) | M: velvetleaf, herbicidal effect (criteria 0-5) (velvetleaf [9]) | herbicidal effect on P: chickweed (chickweed [10]) | herbicidal effect on F: southern crabgrass (southern crabgrass [11]) | herbicidal effect on O: lambsquarters (lambsquarters [12]) | N: redroot pigweed, herbicidal effect (criteria 0-5) (redroot pigweed [13]) | F: southern crabgrass, herbicidal effect (criteria 0-5) (southern crabgrass [14]) | Herbicidal effect on A: late watergrass (grade 0-5) (late watergrass) | herbicidal effect on G: green foxtail (green foxtail [15]) | P: chickweed, herbicidal effect (criteria 0-5) (chickweed [16]) | L: windgrass, herbicidal effect (criteria 0-5) (windgrass [17]) | other results |
| --- | --- | --- | --- | --- | --- | --- | --- | --- | --- | --- | --- | --- | --- | --- | --- | --- | --- | --- | --- | --- | --- |
| Cc1nn(C)c(=O)c(-c2c(-c3ccc([S+](C)[O-])cc3)sc3ccc(F)cc23)c1O (stereo not drawn) [2-256] | 3 (Herbicidal rate of 40% or more and less than 70%) | 3 (Herbicidal rate of 40% or more and less than 70%) | 3 (Herbicidal rate of 40% or more and less than 70%) | 4 (Herbicidal rate of 70% or more and less than 90%) | 1 (Herbicidal rate of 5% or more and less than 20%) | 5 (Herbicidal rate of 90% or more (almost completely withered)) | 0 (Herbicidal rate of 5% or less (almost no effect)) | 0 (Herbicidal rate of 5% or less (almost no effect)) | 0 (Herbicidal rate of 5% or less (almost no effect)) | 5 (Herbicidal rate of 90% or more (almost completely withered)) | 4 (Herbicidal rate of 70% or more and less than 90%) | 3 (Herbicidal rate of 40% or more and less than 70%) | 0 (Herbicidal rate of 5% or less (almost no effect)) | 0 (Herbicidal rate of 5% or less (almost no effect)) | 5 (Herbicidal rate of 90% or more (almost completely withered)) | 4 (Herbicidal rate of 70% or more and less than 90%) | 2 (Herbicidal rate of 20% or more and less than 40%) | 0 (Herbicidal rate of 5% or less (almost no effect)) | 5 (Herbicidal rate of 90% or more (almost completely withered)) | 5 (Herbicidal rate of 90% or more (almost completely withered)) | R: persian speedwell, herbicidal effect (criteria 0-5) (persian speedwell [18]): 5 (Herbicidal rate of 90% or more (almost completely withered)); herbicidal effect on L: windgrass (windgrass [19]): 0 (Herbicidal rate of 5% or less (almost no effect)); herbicidal effect on E: rice flat sedge (rice flat sedge): 4 (Herbicidal rate of 70% or more and less than 90%); Herbicidal effect on B: Japanese bulrush (grade 0-5) (Japanese bulrush): 0 (Herbicidal rate of 5% or less (almost no effect)); herbicidal effect on H: barnyard grass (barnyard grass [20]): 5 (Herbicidal rate of 90% or more (almost completely withered)); herbicidal effect on I: wild oat (wild oat [21]): 1 (Herbicidal rate of 5% or more and less than 20%); I: wild oat, herbicidal effect (criteria 0-5) (wild oat [22]): 5 (Herbicidal rate of 90% or more (almost completely withered)); herbicidal effect on H: barnyard grass (barnyard grass [23]): 0 (Herbicidal rate of 5% or less (almost no effect)); herbicidal effect on R: persian speedwell (persian speedwell [24]): 4 (Herbicidal rate of 70% or more and less than 90%); herbicidal effect on K: Italian ryegrass (Italian ryegrass [25]): 3 (Herbicidal rate of 40% or more and less than 70%) |
| CSCc1ccc(-c2sc3ccc(F)cc3c2-c2c(O)c(C)nn(C)c2=O)cc1 [2-317] | 5 (Herbicidal rate of 90% or more (almost completely withered)) | 4 (Herbicidal rate of 70% or more and less than 90%) | 5 (Herbicidal rate of 90% or more (almost completely withered)) | 2 (Herbicidal rate of 20% or more and less than 40%) | 5 (Herbicidal rate of 90% or more (almost completely withered)) | 5 (Herbicidal rate of 90% or more (almost completely withered)) | 1 (Herbicidal rate of 5% or more and less than 20%) | 4 (Herbicidal rate of 70% or more and less than 90%) | 0 (Herbicidal rate of 5% or less (almost no effect)) | 5 (Herbicidal rate of 90% or more (almost completely withered)) | 5 (Herbicidal rate of 90% or more (almost completely withered)) | 0 (Herbicidal rate of 5% or less (almost no effect)) | 4 (Herbicidal rate of 70% or more and less than 90%) | 5 (Herbicidal rate of 90% or more (almost completely withered)) | 5 (Herbicidal rate of 90% or more (almost completely withered)) | 5 (Herbicidal rate of 90% or more (almost completely withered)) | 3 (Herbicidal rate of 40% or more and less than 70%) | 4 (Herbicidal rate of 70% or more and less than 90%) | 5 (Herbicidal rate of 90% or more (almost completely withered)) | 5 (Herbicidal rate of 90% or more (almost completely withered)) | R: persian speedwell, herbicidal effect (criteria 0-5) (persian speedwell [18]): 5 (Herbicidal rate of 90% or more (almost completely withered)); herbicidal effect on L: windgrass (windgrass [19]): 0 (Herbicidal rate of 5% or less (almost no effect)); herbicidal effect on E: rice flat sedge (rice flat sedge): 5 (Herbicidal rate of 90% or more (almost completely withered)); Herbicidal effect on B: Japanese bulrush (grade 0-5) (Japanese bulrush): 0 (Herbicidal rate of 5% or less (almost no effect)); herbicidal effect on H: barnyard grass (barnyard grass [20]): 5 (Herbicidal rate of 90% or more (almost completely withered)); herbicidal effect on I: wild oat (wild oat [21]): 0 (Herbicidal rate of 5% or less (almost no effect)); I: wild oat, herbicidal effect (criteria 0-5) (wild oat [22]): 5 (Herbicidal rate of 90% or more (almost completely withered)); herbicidal effect on H: barnyard grass (barnyard grass [23]): 5 (Herbicidal rate of 90% or more (almost completely withered)); herbicidal effect on R: persian speedwell (persian speedwell [24]): 3 (Herbicidal rate of 40% or more and less than 70%); herbicidal effect on K: Italian ryegrass (Italian ryegrass [25]): 4 (Herbicidal rate of 70% or more and less than 90%) |
